# Measured values published in US12174189B2, “Diagnostic, prognostic, and monitoring methods for chronic lymphocytic leukemia” (INSTITUTE FOR MYELOMA & BONE CANCER RESEARCH, priority 2013, dated 2024).
# “Also recorded” adds a separate entry of the source.
# Tested on: LAGλ-1 tumor
# Test: LAGλ-1 human MM xenograft in SCID mice
# Type: in vivo, CB17 SCID mice
# Settings: melphalan 3 mg/kg twice weekly i.p., vs untreated mice
# Description: Serum human BCMA levels also correlated with tumor growth, IgG levels and response to treatment in mice bearing another human MM xenograft, LAGλ-1. Untreated mice (n=4) had large tumor volumes and high serum IgG and BCMA levels. […] Human BCMA was not detected in the serum of non-tumor bearing SCID mice (data not shown).
smiles,measurement,setting,value
"N[C@@H](Cc1ccc(N(CCCl)CCCl)cc1)C(=O)O [melphalan, Melphalan]",tumor volumes,P<0.0001,smaller; also recorded: small tumor volumes
same,serum IgG levels,P=0.0033,smaller; also recorded: significantly reduced
same,serum human BCMA levels,P=0.0055,smaller; also recorded: significantly reduced
